Consider 25 compounds from US9751870B2, “Oxytocin receptor agonists for the treatment of CNS diseases” (Hoffmann-La Roche Inc., priority 2013, dated 2017).

This experiment concerns the target T1, human Oxytocin (OTR) receptor (Homo sapiens, UniProt P30559).
T1 construct: expressed in transfected cells
T1 sequence (P30559 1-389): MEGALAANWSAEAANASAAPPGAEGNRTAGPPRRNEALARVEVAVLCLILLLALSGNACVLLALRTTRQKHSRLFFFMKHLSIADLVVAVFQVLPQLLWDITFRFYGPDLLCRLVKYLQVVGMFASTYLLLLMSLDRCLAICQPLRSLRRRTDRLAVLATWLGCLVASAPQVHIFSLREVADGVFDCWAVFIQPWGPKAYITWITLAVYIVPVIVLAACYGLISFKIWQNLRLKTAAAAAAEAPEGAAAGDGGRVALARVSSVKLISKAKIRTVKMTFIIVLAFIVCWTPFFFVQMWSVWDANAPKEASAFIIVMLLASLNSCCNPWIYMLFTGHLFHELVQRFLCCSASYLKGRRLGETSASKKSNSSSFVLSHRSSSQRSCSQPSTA
Briefly: Calcium flux assay (FLIPR), agonist mode, CHO cells expressing human OTR. Particulars: calcium flux in CHO cells expressing human OTR, read-out: hEC50. It is filed as cell-based. The text has this:
Chinese Hamster Ovary (CHO) cells were transfected with expression plasmids encoding either the human V1a, the human Oxytocin (OTR) or the humanV2 receptor, the latter in combination with the chimeric Gqs5 G protein to redirect the signal to Calcium flux. Stable cells were cloned by limiting dilution to yield monoclonal cell lines expressing either human V1a, human V2+Gqs5 or human OTR receptors and selected based on functional responses detected on a fluorometric imaging plate reader (FLIPR) detecting Calcium flux in the cell after receptor activation. The stable cell lines were grown in F-12 K Nutrient Mixture (Kaighns Modification), containing 10% foetal bovine serum (FBS), 1% penicillin-streptomycin, 1% L-[…], 200 ug/ml Geneticin at 37° C. in a 10% CO2 incubator at 95% humidity.
Calcium Flux Assays Using Fluorescent Imaging (Fluorometric Imaging Plate Reader, FLIPR)
On the afternoon before the assay, cells were plated at a density of 50,000 cells/well into black 96 well plates with clear bottoms to allow cell inspection and fluorescence measurements from the bottom of each well. The density of cells was sufficient to yield a confluent monolayer the next day. Hanks balanced salt solution, without phenol red, containing 20 mM HEPES (pH 7.3) and 2.5 mM probenecid (assay buffer) was prepared fresh for each experiment. Compound dilutions were made using a Beckman Biomek 2000 laboratory automation workstation, in assay buffer containing 1% DMSO. The dye-loading buffer consisted of a final concentration of 2 μM Fluo-4-AM (dissolved in DMSO and pluronic acid) in assay buffer. The existing culture media was removed from the wells and 100 μl of the dye-loading buffer was added to each well and incubated for approximately 60 min at 37° C. in a 5% CO2 incubator at 95% humidity. Once dye-loaded, the cells were washed thoroughly on an Embla cell washer with the assay buffer to remove any unincorporated dye. Exactly 100 μl assay buffer was left in each well.
Each 96 well plate containing dye-loaded cells was placed into the FLIPR machine and the laser intensity set to a suitable level to detect low basal fluorescence. To test compounds as agonists, 25 μl diluted compound was added to the plate 10 seconds into the fluorescent measurements and fluorescent response was recorded for 5 minutes. The fluorescence data was normalized to the endogenous full agonist dose-response set at 100% for the maximum response and 0% for the minimum. Each agonist concentration-response curve was constructed using a four parameter logistic equation with Microsoft Excel XLFit as follows: Y=Minimum+((Maximum−Minimum)/(1+10^(LogEC50-X)nH)), where y is the % normalized fluorescence, minimum is the minimum y, maximum is the maximum y, log EC50 is the log10 concentration which produces 50% of the maximum induced fluorescence, x is the log10 of the concentration of the agonist compound and H is the slope of the curve (the Hill Coefficient). The maximum value gives the efficacy of the agonist test compound in percentage. The concentration of agonist that produced a half-maximal response is represented by the EC50 value, the logarithm of which yielded the pEC50 value.
For orientation: Calcium flux is commonly read through the fluorescence of an indicator in the cells.
For `Cc1csc(-n2nccc2NS(=O)(=O)c2ccc(Cl)cc2F)n1` [Example 26, 4-Chloro-2-fluoro-N-[2-(4-methyl-thiazol-2-yl)-2H-pyrazol-3-yl]-benzenesulfonamide], the EC50 stood at 150 nM. In the case of `CCc1ccc(S(=O)(=O)Nc2ccnn2-c2cc(C)ccn2)cc1` [Example 18, 4-Ethyl-N-[2-(4-methyl-pyridin-2-yl)-2H-pyrazol-3-yl]-benzenesulfonamide] it was 20 nM; in that of `O=S(=O)(Nc1ccnn1-c1ccnc(C(F)(F)F)n1)c1ccc(C(F)(F)F)cc1` [Example 21, 4-Trifluoromethyl-N-[2-(2-trifluoromethyl-pyrimidin-4-yl)-2H-pyrazol-3-yl]-benzenesulfonamide], 1570 nM.

Consider `CC(F)c1ccc(S(=O)(=O)Nc2ccnn2-c2ccccn2)cc1` (stereo not shown) [Example 15, 4-(1-Fluoro-ethyl)-N-(2-pyridin-2-yl-2H-pyrazol-3-yl)-benzenesulfonamide], for which the EC50 is 84 nM.

As to `Cc1ccnc(-n2nccc2NS(=O)(=O)c2ccc(C#N)cc2)c1` [Example 19, 4-Cyano-N-[2-(4-methyl-pyridin-2-yl)-2H-pyrazol-3-yl]-benzenesulfonamide], the EC50 was found to be 63 nM.

For the compound `CCc1ccc(S(=O)(=O)Nc2ccnn2-c2nc(C3CC3)ns2)cc1` [Example 25, N-[2-(3-Cyclopropyl-[1,2,4]thiadiazol-5-yl)-2H-pyrazol-3-yl]-4-ethyl-benzenesulfonamide], the EC50 was found to be 1570 nM. In the case of `CCCc1ccc(S(=O)(=O)Nc2ccnn2-c2ccccn2)cc1` [Example 4, 4-Propyl-N-(2-pyridin-2-yl-2H-pyrazol-3-yl)-benzenesulfonamide] it was 34 nM. As for `O=S(=O)(Nc1ccnn1-c1ncccn1)c1ccc(C(F)(F)F)cc1` [Example 12, N-(2-Pyrimidin-2-yl-2H-pyrazol-3-yl)-4-trifluoromethyl-benzenesulfonamide], the EC50 came to 1800 nM. The value for `N#Cc1ccc(S(=O)(=O)Nc2ccnn2-c2ccccn2)cc1` [Example 8, 4-Cyano-N-(2-pyridin-2-yl-2H-pyrazol-3-yl)-benzenesulfonamide] was 81 nM; that for `O=S(=O)(Nc1ccnn1-c1ccccn1)c1ccc(OC(F)F)cc1` [Example 6, 4-Difluoromethoxy-N-(2-pyridin-2-yl-2H-pyrazol-3-yl)-benzenesulfonamide] was 107 nM. In the case of `CCc1ccc(S(=O)(=O)Nc2ccnn2-c2ccccn2)cc1` [Example 3, 4-Ethyl-N-(2-pyridin-2-yl-2H-pyrazol-3-yl)-benzenesulfonamide] it was 16 nM. In the case of `O=S(=O)(Nc1ccnn1-c1ccccn1)c1ccc(Cl)cc1Cl` [Example 13, 2,4-Dichloro-N-(2-pyridin-2-yl-2H-pyrazol-3-yl)-benzenesulfonamide] it was 17 nM; in that of `Cc1ccnc(-n2nccc2NS(=O)(=O)c2ccc(C(F)(F)F)cc2)c1` [Example 16, N-[2-(4-Methyl-pyridin-2-yl)-2H-pyrazol-3-yl]-4-trifluoromethyl-benzenesulfonamide], 17 nM. Turning to `Cc1ccnc(-n2nccc2NS(=O)(=O)c2ccc(Cl)cc2)c1` [Example 17, 4-Chloro-N-[2-(4-methyl-pyridin-2-yl)-2H-pyrazol-3-yl]-benzenesulfonamide], the EC50 is 16 nM.

With `CCc1ccc(S(=O)(=O)Nc2ccnn2-c2nc(C)cs2)cc1` [Example 11, 4-Ethyl-N-[2-(4-methyl-thiazol-2-yl)-2H-pyrazol-3-yl]-benzenesulfonamide], the EC50 came out at 113 nM. In the case of `O=S(=O)(Nc1ccnn1-c1ccccn1)c1ccc(S(=O)(=O)C(F)(F)F)cc1` [Example 23, N-(2-Pyridin-2-yl-2H-pyrazol-3-yl)-4-trifluoromethanesulfonyl-benzenesulfonamide], the EC50 was 753 nM. The value for `O=S(=O)(Nc1ccnn1-c1ccc(F)cc1)c1ccc(Cl)cc1` [Example 7, 4-Chloro-N-[2-(4-fluoro-phenyl)-2H-pyrazol-3-yl]-benzenesulfonamide] was 2460 nM; that for `Cc1csc(-n2nccc2NS(=O)(=O)c2ccc(Cl)cc2)n1` [Example 10, 4-Chloro-N-[2-(4-methyl-thiazol-2-yl)-2H-pyrazol-3-yl]-benzenesulfonamide] was 163 nM. The value for `O=S(=O)(Nc1ccnn1-c1ccccn1)c1ccc(Cl)cc1` [Example 1, 4-Chloro-N-(2-pyridin-2-yl-2H-pyrazol-3-yl)-benzenesulfonamide] was 19 nM; that for `Cc1csc(-n2nccc2NS(=O)(=O)c2ccc(C(F)(F)F)cc2)n1` [Example 9, N-[2-(4-Methyl-thiazol-2-yl)-2H-pyrazol-3-yl]-4-trifluoromethyl-benzenesulfonamide] was 520 nM. In the case of `O=S(=O)(Nc1ccnn1-c1ccccn1)c1ccc(C(F)(F)F)cc1` [Example 2, N-(2-Pyridin-2-yl-2H-pyrazol-3-yl)-4-trifluoromethyl-benzenesulfonamide] it was 8 nM; in that of `O=S(=O)(Nc1ccnn1-c1ccccn1)c1ccc(C(F)(F)F)cc1F` [Example 22, 2-Fluoro-N-(2-pyridin-2-yl-2H-pyrazol-3-yl)-4-trifluoromethyl-benzenesulfonamide], 333 nM; in that of `O=S(=O)(Nc1ccnn1-c1ccccn1)c1ccc(C(F)(F)F)cc1Cl` [Example 5, 2-Chloro-N-(2-pyridin-2-yl-2H-pyrazol-3-yl)-4-trifluoromethyl-benzenesulfonamide], 91 nM.

Regarding `O=S(=O)(Nc1ccnn1-c1ccccn1)c1ccc(C(F)(F)F)c(F)c1` [Example 24, 3-Fluoro-N-(2-pyridin-2-yl-2H-pyrazol-3-yl)-4-trifluoromethyl-benzenesulfonamide], the EC50 worked out at 799 nM. In the case of `O=S(=O)(Nc1ccnn1-c1ccccn1)c1ccc(SC(F)(F)F)cc1` [Example 20, N-(2-Pyridin-2-yl-2H-pyrazol-3-yl)-4-trifluoromethylsulfanyl-benzenesulfonamide] it was 47 nM.
